Experimental data as given in the supplement of paper PMC10307832.

Experiments:
Experiment in all cases: relative viability (nuclei count vs DMSO), 5 days (fraction); higher = more cells survive
[1] = compound: COC1=C(C=C(C=C1)C2=CC3=NC=CN3C(=N2)NC4=C(C=CC=N4)C(=O)N)OC [BAY61-3606] + CC(=O)c1c(C)c2cnc(Nc3ccc(N4CCNCC4)cn3)nc2n(C2CCCC2)c1=O [Palbociclib] (partner 0.5 µM)
Summary of the method: (§1)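 Nuclei were stained with Hoechst during a one-step fixation (final 0.05% Triton X-100, 1% formaldehyde, 1 ug/ml Hoechst) carried out 5 days after dosing, then counted on 4× images. The cells, lung cancer lines in 1536-well plates, had been dosed by pin tool the day after seeding with one drug alone or a fixed anchor-drug dose plus five library-drug doses (not always all listed) in √10 steps. Relative viability is the nuclei count in treated wells divided by that in vehicle wells, and each value is the median of duplicate plates.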

[2] = compound: COc1cccc2c1C(=O)c1c(O)c3c(c(O)c1C2=O)C[C@@](O)(C(=O)CO)C[C@@H]3O[C@H]1C[C@H](N)[C@H](O)[C@H](C)O1 [Doxorubicin] + CC(=O)c1c(C)c2cnc(Nc3ccc(N4CCNCC4)cn3)nc2n(C2CCCC2)c1=O [Palbociclib] (partner 0.5 µM)
Summary of the method: as §1

[3] = compound: COc1cccc2c1C(=O)c1c(O)c3c(c(O)c1C2=O)C[C@@](O)(C(=O)CO)C[C@@H]3O[C@H]1C[C@H](N)[C@H](O)[C@H](C)O1 [Doxorubicin] + CS(=O)(=O)N1CCN(Cc2cc3nc(-c4cccc5[nH]ncc45)nc(N4CCOCC4)c3s2)CC1 [Pictilisib] (partner 1 µM)
Summary of the method: as §1

[4] = compound: COc1cccc2c1C(=O)c1c(O)c3c(c(O)c1C2=O)C[C@@](O)(C(=O)CO)C[C@@H]3O[C@H]1C[C@H](N)[C@H](O)[C@H](C)O1 [Doxorubicin] + O=C(c1cc(Cc2n[nH]c(=O)c3ccccc23)ccc1F)N1CCN(C(=O)C2CC2)CC1 [Olaparib] (partner 8 µM)
Summary of the method: as §1

Cell Line | relative viability ([1]; first compound 0.02 µM) | relative viability ([1]; first compound 0.06325 µM) | relative viability ([1]; first compound 0.2 µM) | relative viability ([1]; first compound 0.6325 µM) | relative viability ([1]; first compound 2 µM) | relative viability ([2]; first compound 0.001 µM) | relative viability ([2]; first compound 0.003162 µM) | relative viability ([2]; first compound 0.01 µM) | relative viability ([2]; first compound 0.03162 µM) | relative viability ([2]; first compound 0.1 µM) | relative viability ([3]; first compound 0.001 µM) | relative viability ([3]; first compound 0.003162 µM) | relative viability ([3]; first compound 0.01 µM) | relative viability ([3]; first compound 0.03162 µM) | relative viability ([3]; first compound 0.1 µM) | relative viability ([4]; first compound 0.001 µM) | relative viability ([4]; first compound 0.003162 µM) | relative viability ([4]; first compound 0.01 µM) | relative viability ([4]; first compound 0.03162 µM) | relative viability ([4]; first compound 0.1 µM)
LXF-289 | 0.533 | 0.587 | 0.62 | 0.677 | 0.665 | 0.589 | 0.625 | 0.549 | 0.634 | 0.607 | 0.698 | 0.772 | 0.716 | 0.783 | 0.745 | 1.03 | 1.12 | 0.998 | 1.07 | 1.15
NCI-H23 | 0.646 | 0.484 | 0.549 | 0.509 | 0.371 | 0.503 | 0.568 | 0.479 | 0.428 | 0.44 |  | 0.475 | 0.462 | 0.375 | 0.401 | 0.356 | 0.373 | 0.293 | 0.334 | 0.32
NCI-H322M | 0.522 | 0.47 | 0.511 | 0.49 | 0.447 | 0.548 | 0.482 | 0.486 | 0.465 | 0.465 | 0.589 | 0.448 | 0.546 | 0.561 | 0.564 | 0.731 | 0.765 | 0.745 | 0.542 | 0.508
NCI-H358 | 0.123 | 0.143 | 0.136 | 0.125 | 0.101 | 0.129 | 0.141 | 0.118 | 0.0838 | 0.1 | 0.441 | 0.349 | 0.273 | 0.175 | 0.181 | 0.592 | 0.535 | 0.347 | 0.12 | 0.116
NCI-H441 | 0.249 | 0.264 | 0.256 | 0.231 | 0.192 | 0.227 | 0.217 | 0.229 | 0.153 | 0.195 | 0.434 | 0.521 | 0.404 | 0.292 | 0.323 | 0.545 | 0.518 | 0.511 | 0.235 | 0.239
NCI-H460 | 0.171 | 0.126 | 0.256 | 0.257 | 0.086 | 0.103 | 0.108 | 0.0853 | 0.041 | 0.007 | 0.246 | 0.393 | 0.392 | 0.309 | 0.249 | 0.366 | 0.419 | 0.346 | 0.114 | 0.0883
NCI-H520 | 0.218 | 0.246 | 0.254 | 0.265 | 0.22 | 0.213 | 0.216 | 0.183 | 0.175 | 0.203 | 0.264 | 0.326 | 0.228 | 0.239 | 0.191 | 0.318 | 0.337 | 0.313 | 0.248 | 0.297
NCI-H647 | 0.386 | 0.358 | 0.328 | 0.401 | 0.235 | 0.403 | 0.492 | 0.412 | 0.15 | 0.239 |  | 0.38 | 0.46 | 0.279 | 0.1 | 0.503 | 0.47 | 0.48 | 0.0818 | 0.124
NCI-H650 | 0.34 | 0.337 | 0.371 | 0.365 | 0.306 | 0.371 | 0.362 | 0.325 | 0.293 | 0.326 | 0.989 | 0.886 | 0.867 | 0.734 | 0.711 | 0.418 | 0.494 | 0.38 | 0.334 | 0.296
NCI-H661 | 0.408 | 0.378 | 0.413 | 0.42 | 0.477 | 0.384 | 0.407 | 0.396 | 0.36 | 0.34 | 0.399 | 0.412 | 0.378 | 0.452 | 0.324 | 0.674 | 0.881 | 0.681 | 0.542 | 0.52
NCI-H727 | 0.737 | 0.588 | 0.637 | 0.635 | 0.631 | 0.655 | 0.661 |  | 0.577 | 0.62 | 0.334 | 0.342 | 0.353 | 0.391 | 0.356 | 0.821 | 0.811 |  | 0.768 | 0.753
NCI-H838 | 0.233 | 0.2 | 0.22 | 0.247 | 0.207 | 0.254 | 0.234 | 0.229 | 0.222 | 0.184 | 0.394 | 0.424 | 0.387 | 0.227 | 0.182 | 0.795 | 0.759 | 0.702 | 0.337 | 0.279
NCI-H1355 | 0.444 | 0.404 | 0.398 | 0.454 | 0.335 | 0.423 | 0.432 | 0.388 | 0.38 | 0.392 | 0.179 | 0.565 | 0.465 | 0.412 | 0.44 | 0.732 | 0.688 | 0.694 | 0.704 | 0.85
NCI-H1395 | 0.702 | 0.598 | 0.608 | 0.682 | 0.59 | 0.579 | 0.618 | 0.663 | 0.671 | 0.575 | 0.682 | 0.623 | 0.648 | 0.628 | 0.421 | 0.445 | 0.506 | 0.466 | 0.417 | 0.4
NCI-H1437 | 0.338 | 0.28 | 0.312 | 0.387 | 0.315 | 0.315 | 0.327 | 0.294 | 0.295 | 0.26 | 0.541 | 0.443 | 0.363 | 0.122 | 0.143 | 0.639 | 0.631 | 0.567 | 0.416 | 0.417
